{"source": "patent US8318638B2", "about": "“Plant activator” (Shiseido Company, Ltd., priority 1999, dated 2012)", "assay_type_in_all_cases": "in vivo", "key": {"geranium": {"system": "geranium", "assay": "Growth promotion effect on geranium", "conditions": "80 μM aqueous solution, five consecutive days then once a week for six weeks; mottled and non-mottled leaf types; five-and-a-half months after last spraying; FIG. 8", "procedure": "Two weeks after seeding of geranium, spraying of an 80 μM specific ketol fatty acid (I) aqueous solution was carried out for five consecutive days. Furthermore, three months after the start of the test, spraying of an 80 μM specific ketol fatty acid (I) aqueous solution was carried out for six weeks (once a week). Two types of geranium; i.e., geranium having mottled leaves and geranium having leaves of no mottles, were subjected to the test. Five-and-a-half months after the last spraying, the size of the leaves was measured."}, "Oryza sativa L.": {"system": "Oryza sativa L.", "assay": "Growth controlling effect on Oryza sativa L. in paddy field (spraying)", "procedure": "(2) Seedlings of Oryza sativa L. were grown in a seedbed in a manner similar to that described in (1), except that the seedlings were immersed in ion-exchange water at 10° C. for 15 days, without application of specific ketol fatty acid (I) described above in (1). Subsequently, the resultant seedlings which had been divided into five groups, each group containing three subgroups (only control group containing four subgroups) and each subgroup containing 16 seedlings, were exposed to the outside environment. Immediately after this exposure, spraying of specific ketol fatty acid (I) was carried out (0 ppm for a first group (control group), 25 ppm for second and third groups, 50 ppm for fourth and fifth groups). Thirty days after the spraying, the seedlings were planted in a paddy field, and additional spraying of specific ketol fatty acid (I) (25 ppm) was carried out for two groups; i.e., the third group (total amount of the acid (I): 25+25 ppm) and the fifth group (total amount of the acid (I): 50+25 ppm). Subsequently, the seedlings of the Oryza sativa L. were grown in the paddy field by means of a customary method. Forty-one days after the above planting, in each group, the plant height and the number of stems per plant (at a section at which four seedlings were planted) were measured, and then averaged."}, "[1]": {"system": "carpophores of Lentinus edodes", "assay": "Growth promotion effect on carpophore of Lentinus edodes (Berk.) Singer", "conditions": "5 mL per piece, five days culture at 18° C.", "procedure": "Wood (Quercus serrata) containing hyphae of Lentinus edodes was cut into pieces having a length of about 15 cm, and the pieces were immersed in 10° C. water for 24 hours, after which the pieces were allowed to stand in a container of high humidity. Subsequently, specific ketol fatty acid (I) aqueous solutions (concentration: 0 μm, 3 μM, 30 μm, and 100 μM) were applied through spraying to the resultant pieces (six pieces for each group). Each solution was applied to each group (5 mL for each piece). Subsequently, the carpophores of Lentinus edodes were cultured in the same container at 18° C. under weak light irradiation. This culture was continued for five days, and then growth of the carpophores of Lentinus edodes was observed. FIG. 16 is a photograph showing the carpophores of Lentinus edodes cultured in the groups (note: {circumflex over (1)} application of the specific ketol fatty acid (I) (0 μM), (2) (3 μM), (3). (30 μM), and (4) (100 μM)). The average of the carpophores per piece was 0 in the 0 μM application group, 0.17 in the 3 μM application group, 1.0 in the 30 μM application group, and 1.0 in the 100 μM application group."}, "lettuce": {"system": "lettuce", "assay": "Growth promotion effect on lettuce", "conditions": "50 μM aqueous solution sprayed five consecutive days", "procedure": "One month after seeding of lettuce, spraying of a 50 μM specific ketol fatty acid (I) aqueous solution was carried out for five consecutive days, and growth of the lettuce (plant width) was observed."}, "strawberry seedlings": {"system": "strawberry seedlings", "assay": "Plant dormancy preventive test on strawberry", "procedure": "When strawberry seedlings are exposed directly to low temperature conditions in winter, the seedlings enter dormancy, and growth of the seedlings is stopped. Whether or not the present plant activator exerts the effect of preventing dormancy was evaluated.\nSpecific ketol fatty acid (I) aqueous solutions [concentration: 10 μM, 100 μM, and 0 μM (control)] were applied through spraying to strawberry seedlings on August 27 (at day 0), September 3, and September 8. […] In the control group, no flower bud formation was observed.\nAt the one hundred and eighth day, percent dormancy (percentage of dormant plants—which are plants in which growth of small leaf buds with markings is not observed 15 days after a marking was applied to the leaf buds—with respect to the entirety of the test plants) was measured. As a result, in the control group, dormancy of the entire plants was observed."}, "broad bean": {"system": "broad bean", "assay": "Growth promotion effect on broad bean", "conditions": "50 μm aqueous solution sprayed five consecutive days", "procedure": "One month after seeding of broad bean, spraying of a 50 μm specific ketol fatty acid (I) aqueous solution was carried out for five consecutive days, and growth of the broad bean (plant width) was observed."}, "Begonia sempaflorens": {"system": "Begonia sempaflorens", "assay": "Growth promotion effect on Begonia sempaflorens", "conditions": "80 μm aqueous solution, five consecutive days then once a week for six weeks; four months after last spraying; FIG. 10", "procedure": "Two weeks after seeding of Begonia sempaflorens, spraying of an 80 μm specific ketol fatty acid (I) aqueous solution was carried out for five consecutive days. Furthermore, three months after the start of the test, spraying of an 80 μm specific ketol fatty acid (I) aqueous solution was carried out for six weeks (once a week). Four months after the last spraying, the leave size was measured."}, "Primula melacoides": {"system": "Primula melacoides", "assay": "Growth promotion effect on Primula melacoides", "conditions": "80 μM aqueous solution, five consecutive days then once a week for six weeks; six-and-a-half months after last spraying; FIG. 9", "procedure": "One-and-a-half months after seeding of Primula melacoides, spraying of an 80 μm specific ketol fatty acid (I) aqueous solution was carried out for five consecutive days. Furthermore, four months after the start of the test, spraying of an 80 μM specific ketol fatty acid (I) aqueous solution was carried out for six weeks (once a week). Bolting was not observed at a nutrition growth stage of the Primula melacoides. Six-and-a-half months after the last spraying, the plant width and the leave size were measured."}, "Seeds of lettuce": {"system": "Seeds of lettuce", "assay": "Dry stress suppressive effect on lettuce seeds (germination)", "conditions": "for Number of germinated seeds: 50 seeds per group; for Germination rate (%: n = 50): seeds immersed 72 hours, dried in air 48 hours", "procedure": "Seeds of lettuce (50 seeds per test group) were immersed in specific ketol fatty acid (I) aqueous solutions [concentration: 2 μM, 10 μM, 20 μM, and 0 μM (control)] for 72 hours, and dried in air for 48 hours. The resultant seeds were disposed on water-containing filter paper, and allowed to germinate. In each test group, germination rate—percentage (%) of germinated seeds with respect to the entirety of seeds—was obtained."}, "[2]": {"conditions": "fifth group: 50+25 ppm sprayed, 41 days after planting"}, "[3]": {"conditions": "fourth group: 50 ppm sprayed, 41 days after planting"}, "[4]": {"conditions": "second group: 25 ppm sprayed, 41 days after planting"}, "[5]": {"conditions": "third group: 25+25 ppm sprayed, 41 days after planting"}}}
{"molecule": "CC/C=C\\C/C=C\\CC(=O)C(O)CCCCCCCC(=O)O", "note": "(stereo not drawn) [specific ketol fatty acid (I), 9-hydroxy-10-oxo-12(Z),15(Z)-octadecadienoic acid]", "values": [{"measurement": "size of the leaves", "setting": "geranium", "result": "growth of the leaves of these two types is promoted"}, {"measurement": "plant height, difference between groups incl. control", "setting": "Oryza sativa L.; 25 to 50+25 ppm, 41 days after planting", "result": "significant difference was not observed"}, {"measurement": "number of stems per plant greater than control group", "setting": "Oryza sativa L.; each of the second through fifth groups", "result": "about 10%"}, {"measurement": "number of stems per plant", "setting": "Oryza sativa L.; [2]", "result": 37}, {"measurement": "plant height", "setting": "Oryza sativa L.; [2]", "result": 58, "unit": "cm"}, {"measurement": "number of stems per plant", "setting": "Oryza sativa L.; [3]", "result": 38}, {"measurement": "plant height", "setting": "Oryza sativa L.; [3]", "result": 58, "unit": "cm"}, {"measurement": "number of stems per plant", "setting": "Oryza sativa L.; [4]", "result": 38}, {"measurement": "plant height", "setting": "Oryza sativa L.; [4]", "result": 57, "unit": "cm"}, {"measurement": "number of stems per plant", "setting": "Oryza sativa L.; [5]", "result": 39}, {"measurement": "plant height", "setting": "Oryza sativa L.; [5]", "result": 57, "unit": "cm"}, {"measurement": "average of the carpophores per piece", "setting": "[1]; 3 μM sprayed", "result": 0.17}, {"measurement": "average of the carpophores per piece", "setting": "[1]; 30 μM sprayed", "result": 1.0}, {"measurement": "average of the carpophores per piece", "setting": "[1]; 100 μM sprayed", "result": 1.0}, {"measurement": "duration of growth promotion effect", "setting": "lettuce", "result": "maintained 48 days after the start of the test"}, {"measurement": "growth of the lettuce (plant width)", "setting": "lettuce; one month after seeding, FIG. 2", "result": "exerts the effect of promoting growth of the lettuce"}, {"measurement": "formation of flower buds", "setting": "strawberry seedlings; 10 μM and 100 μM aqueous solutions sprayed three times, cultured outdoors", "result": "flower bud formation proceeded, and the number of flowers increased"}, {"measurement": "percent dormancy", "setting": "strawberry seedlings; 10 μM and 100 μM sprayed, at the one hundred and eighth day, FIG. 14", "result": "dormancy of strawberry was prevented"}, {"measurement": "dormancy preventive effect, low vs high concentration", "setting": "strawberry seedlings; 10 μm vs 100 μM, FIG. 14", "result": "more significant in the group in which the specific ketol fatty acid (I) of low concentration (10 μm) was applied"}, {"measurement": "duration of growth promotion effect", "setting": "broad bean", "result": "maintained 48 days after the start of the test"}, {"measurement": "growth of the broad bean (plant width)", "setting": "broad bean; one month after seeding, FIG. 3", "result": "exerts the effect of promoting growth of the broad bean"}, {"measurement": "leave size", "setting": "Begonia sempaflorens", "result": "growth of the leaves is promoted"}, {"measurement": "leave size", "setting": "Primula melacoides", "result": "increased"}, {"measurement": "plant width", "setting": "Primula melacoides", "result": "increased"}, {"measurement": "Number of germinated seeds", "setting": "Seeds of lettuce; 2 μM", "result": 43}, {"measurement": "Germination rate (%: n = 50)", "setting": "Seeds of lettuce; 2 μM", "result": 86, "unit": "%"}, {"measurement": "Number of germinated seeds", "setting": "Seeds of lettuce; 10 μM", "result": 49}, {"measurement": "Germination rate (%: n = 50)", "setting": "Seeds of lettuce; 10 μM", "result": 98, "unit": "%"}, {"measurement": "Number of germinated seeds", "setting": "Seeds of lettuce; 20 μM", "result": 45}, {"measurement": "Germination rate (%: n = 50)", "setting": "Seeds of lettuce; 20 μM", "result": 90, "unit": "%"}]}
